This assay concerns Bim. In words: Bim protein level by flow cytometry in RA T cells. The class given is cell-based, human. As to conditions: treated vs untreated. The method, then: FIG. 8. The DNA-PKcs-JNK pathway upregulates the apoptogenic molecules Bim and Bmf in RA CD4+ T cells. CD4+CD45RO− T cells were isolated from the peripheral blood of 6 controls and 6 RA patients. Cells were maintained in culture without mitogenic stimulation for 72 h. (A) Puma, Noxa, Bim and Bmf transcript levels in freshly isolated cells were quantified by qPCR. Data are presented as mean±SEM. (B) Flow cytometry analysis of Bim levels in control and RA naïve T cells after 72 h of culture. Expression of Bim protein in n=5 RA and n=5 controls samples is given as MFI of Alexa Fluor 488 Bim. (C) Flow cytometry analysis of Bmf levels in control and RA naïve T cells. Expression of Bmf protein in n=6 RA and n=4 controls samples is given as MFI of PE Bmf. (D) Bcl-2 protein levels were analyzed by flow cytometry. Expression of Bcl-2 protein in n=6 RA and n=6 control samples is given as MFI of FITC Bcl-2. (E) Bim protein level in the absence and presence of the DNA-PKcs inhibitor were analyzed by flow cytometry in samples from 4 RA patients. […]
For intracellular staining, cells were fixed directly with 1.5% formaldehyde for 10 min at room temperature and resuspended in 90% methanol. […] Proteins or 8-oxoguanine expression were detected by an LSRII flow cytometer (BD Biosciences). Data were analyzed by FlowJo software (Tree Star Inc., Ashland, Oreg.). […]
Background: A flow cytometer gives signals particle by particle.

With `CC(=O)c1ccc(N2CCOCC2)cc1O` [IC86621, 1-(2-hydroxy-4-morpholin-4-ylphenyl)ethanone], the “intracellular Bim levels” value is listed as “reduced”.

For the origin of these results see patent US9511086B2, “Method for improving immune system function by administering agents that inhibit DNA-dependent protein kinase-directed apoptosis” (The Board of Trustees of the Leland Stanford Junior …, priority 2010, dated 2016).
